PubChem BioAssay (NCI)
Where “and” joins values, the source holds several entries; their conditions need not be identical. Identical values can stand only once.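 Following 48 hours of exposure in 96-well plates, responses at five concentrations were used to interpolate endpoints linearly. GI50 is the concentration that inhibits growth by half. Definition used: TGI = concentration required for complete inhibition of growth.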

How the values were obtained:
Test in all cases: growth of human tumour cells (NCI), 48 h
A549 NSCLC = tested on: A549 NSCLC
ACHN renal = tested on: ACHN renal
CAKI-1 renal = tested on: CAKI-1 renal
COLO 205 colon = tested on: COLO 205 colon
HOP-92 NSCLC = tested on: HOP-92 NSCLC
M14 melanoma = tested on: M14 melanoma
NCI-H226 lung = tested on: NCI-H226 lung
SF-539 CNS = tested on: SF-539 CNS
SNB-75 CNS = tested on: SNB-75 CNS
SW-620 colon = tested on: SW-620 colon

Row | SMILES | GI50 (A549 NSCLC) [µM] | TGI (A549 NSCLC) [µM] | GI50 (ACHN renal) [µM] | TGI (ACHN renal) [µM] | GI50 (CAKI-1 renal) [µM] | TGI (CAKI-1 renal) [µM] | GI50 (COLO 205 colon) [µM] | TGI (COLO 205 colon) [µM] | GI50 (HOP-92 NSCLC) | TGI (HOP-92 NSCLC) [µM] | GI50 (M14 melanoma) [µM] | TGI (M14 melanoma) [µM] | GI50 (NCI-H226 lung) [µM] | TGI (NCI-H226 lung) [µM] | GI50 (SF-539 CNS) [µM] | TGI (SF-539 CNS) [µM] | GI50 (SNB-75 CNS) | TGI (SNB-75 CNS) | GI50 (SW-620 colon) [µM] | TGI (SW-620 colon) [µM]
1 | CNC1=CC(=O)C2=C(C1=O)C1C3=C(C(=O)C(Br)=C(OC)C3=O)C2c2ccccc21 (stereo unspecified) | 20.6 | > 50 | 1.74 | 6.21 | 1.89 | 4.83 | 9.89 | 22 | 1.24 µM | 2.97 | 6.76 | 17.1 | 6.66 | 14.7 | 1.23 | 2.75 | 5.69 µM | 18.2 µM | 2.88 | > 50
2 | Cc1cc(Cl)ccc1N1C(=O)C(=O)C(c2nc3ccccc3o2)C(=O)C1=O |  | > 100 |  | > 100 |  | > 100 |  | > 100 |  | > 100 |  | > 100 |  | > 100 |  | > 100 |  | > 100 µM |  | > 100
3 | Cc1cccc(Cl)c1NC(=O)c1cccc([N+](=O)[O-])c1O |  | > 100 |  | > 100 |  | > 100 |  | > 100 |  | 69.6 |  | > 100 |  | 95.9 |  | 85.2 |  | > 100 µM |  | > 100
4 | CCOc1ccc(NC(=O)c2cc3ccccc3cc2O)cc1 | > 100 | > 100 | 49.9 | > 100 | > 100 | > 100 | > 100 | > 100 | 11.7 µM | 38.5 | 93.4 | > 100 | 64.3 | > 100 | 33.2 | > 100 | 34.9 µM | > 100 µM | > 100 | > 100
5 | c1ccc2c(-c3cnn4cc(-c5ccc(N6CCNCC6)cc5)cnc34)ccnc2c1 | 0.766 | 1.99 | 1.09 | 2.29 | 1.35 | 2.77 | 1.42 | 2.81 | 1.59 µM | 3.03 | 0.297 | 0.962 | 1.65 | 3.59 | 1.31 | 2.6 | 0.441 µM | 2.12 µM | 0.335 | 1.37
6 | CC(=O)OCC1OC(n2c(=S)n(-c3ccccc3)c(=O)c3cc(Br)ccc32)C(OC(C)=O)C(OC(C)=O)C1OC(C)=O (stereo unspecified) |  | > 100 |  | > 100 |  | > 100 |  | > 100 | 22.1 µM and > 100 µM | > 100 |  | > 100 |  | > 100 |  | > 100 | 33.8 µM and > 100 µM | 99.2 µM and > 100 µM |  | > 100
7 | O=C(O)c1nnsc1-c1csnn1 |  | > 100 |  | > 100 |  | > 100 |  | > 100 |  | > 100 |  | > 100 |  | > 100 |  | > 100 |  | > 100 µM |  | > 100
8 | CC(=O)Oc1ccccc1C(=O)NCCC[Se]C#N | 1.84 | 3.6 | 2.29 | 4.3 | 1.97 | 3.94 | 12.8 | 29.9 | 1.49 µM | 3.05 | 1.82 | 5.38 | 2.06 | 5.62 | 2.04 | 3.87 | 1.88 µM | 4.92 µM | 3.47 | 
